# ChEMBL document CHEMBL3407341, “Synthesis and biological evaluation of 2-aryliminopyrrolidines as selective ligands for I1 imidazoline receptors: discovery of new sympatho-inhibitory hypotensive agents with potential beneficial effects in metabolic syndrome” (J Med Chem, 2015)
# pKi: −log10 of the molar value. Activity calls are given as the source filed them. The rule behind the calls is not given here.
# Experiments:
# [1] = target: T1, Adrenergic receptor alpha-2 (Homo sapiens, UniProt P08913+P18825+P18089); test: Displacement of [3H]RX821002 from human alpha2 adrenoceptor expressed in CHO cell membranes after 60 mins; format: cell-based
# T1 sequence (P08913 whole entry): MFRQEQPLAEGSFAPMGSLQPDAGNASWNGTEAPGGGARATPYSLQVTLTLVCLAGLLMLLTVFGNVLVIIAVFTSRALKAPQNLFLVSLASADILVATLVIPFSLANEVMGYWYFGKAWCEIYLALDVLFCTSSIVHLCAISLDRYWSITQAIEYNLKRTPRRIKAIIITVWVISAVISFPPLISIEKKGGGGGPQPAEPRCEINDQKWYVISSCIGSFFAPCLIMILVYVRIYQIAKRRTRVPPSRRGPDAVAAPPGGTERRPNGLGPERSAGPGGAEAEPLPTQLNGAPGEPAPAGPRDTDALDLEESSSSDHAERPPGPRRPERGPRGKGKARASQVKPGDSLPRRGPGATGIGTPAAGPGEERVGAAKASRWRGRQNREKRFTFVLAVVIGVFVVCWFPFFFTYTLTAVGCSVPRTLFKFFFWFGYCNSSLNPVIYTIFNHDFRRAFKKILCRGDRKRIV
# T1 sequence (P18825 whole entry): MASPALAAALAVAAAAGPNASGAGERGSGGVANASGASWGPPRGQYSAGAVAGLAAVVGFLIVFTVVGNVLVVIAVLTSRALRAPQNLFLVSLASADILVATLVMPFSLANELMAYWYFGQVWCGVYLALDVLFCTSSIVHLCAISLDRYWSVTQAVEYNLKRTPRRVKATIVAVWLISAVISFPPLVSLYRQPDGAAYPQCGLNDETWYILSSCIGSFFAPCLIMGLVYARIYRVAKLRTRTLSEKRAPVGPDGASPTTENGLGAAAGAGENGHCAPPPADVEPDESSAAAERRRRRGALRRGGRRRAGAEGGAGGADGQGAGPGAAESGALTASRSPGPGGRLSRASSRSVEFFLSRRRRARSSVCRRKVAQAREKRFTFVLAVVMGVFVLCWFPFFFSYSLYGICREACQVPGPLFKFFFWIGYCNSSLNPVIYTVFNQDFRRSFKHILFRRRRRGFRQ
# T1 sequence (P18089 whole entry): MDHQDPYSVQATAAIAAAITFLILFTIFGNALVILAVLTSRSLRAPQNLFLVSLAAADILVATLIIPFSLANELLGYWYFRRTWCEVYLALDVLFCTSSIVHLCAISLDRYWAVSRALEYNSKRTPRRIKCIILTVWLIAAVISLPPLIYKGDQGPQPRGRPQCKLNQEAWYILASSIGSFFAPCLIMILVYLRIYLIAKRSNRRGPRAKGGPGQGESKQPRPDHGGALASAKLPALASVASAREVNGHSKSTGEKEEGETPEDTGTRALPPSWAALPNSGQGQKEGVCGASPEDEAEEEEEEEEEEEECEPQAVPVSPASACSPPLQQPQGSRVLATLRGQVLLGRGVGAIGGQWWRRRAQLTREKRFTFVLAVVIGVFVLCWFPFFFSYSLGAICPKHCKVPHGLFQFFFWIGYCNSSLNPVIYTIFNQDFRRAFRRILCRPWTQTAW
# Rattus norvegicus [2] = test: Reduction in heart rate in normotensive anaesthetized Wistar rat at 10 mg/kg, iv; set-up: scale not given: the % may be the effect or the level left
# Rattus norvegicus [3] = test: Reduction in mean arterial blood pressure in normotensive anaesthetized Wistar rat at 10 mg/kg, iv; set-up: scale not given: the % may be the effect or the level left
# Rattus norvegicus [4] = test: Reduction in mean arterial blood pressure in normotensive anaesthetized Wistar rat at 0.3 mg/kg administered intracisternally; format: functional
# Rattus norvegicus [5] = test: Reduction in heart rate in normotensive anaesthetized Wistar rat at 0.3 mg/kg administered intracisternally; format: functional
# Rattus norvegicus [6] = test: Reduction in heart rate in normotensive anaesthetized Wistar rat at 10 mg/kg, iv; format: functional; set-up: scale not given: the % may be the effect or the level left
# Rattus norvegicus [7] = test: Reduction in mean arterial blood pressure in normotensive anaesthetized Wistar rat at 3 mg/kg, iv; set-up: scale not given: the % may be the effect or the level left
# Nischarin = Nischarin (Rattus norvegicus, UniProt Q4G017); test: Displacement of [125I] PIC from I1 imidazoline receptor in rat PC12 cells after 45 mins by gamma counting; format: cell-based, PC-12
# Nischarin, sequence (Q4G017 whole entry): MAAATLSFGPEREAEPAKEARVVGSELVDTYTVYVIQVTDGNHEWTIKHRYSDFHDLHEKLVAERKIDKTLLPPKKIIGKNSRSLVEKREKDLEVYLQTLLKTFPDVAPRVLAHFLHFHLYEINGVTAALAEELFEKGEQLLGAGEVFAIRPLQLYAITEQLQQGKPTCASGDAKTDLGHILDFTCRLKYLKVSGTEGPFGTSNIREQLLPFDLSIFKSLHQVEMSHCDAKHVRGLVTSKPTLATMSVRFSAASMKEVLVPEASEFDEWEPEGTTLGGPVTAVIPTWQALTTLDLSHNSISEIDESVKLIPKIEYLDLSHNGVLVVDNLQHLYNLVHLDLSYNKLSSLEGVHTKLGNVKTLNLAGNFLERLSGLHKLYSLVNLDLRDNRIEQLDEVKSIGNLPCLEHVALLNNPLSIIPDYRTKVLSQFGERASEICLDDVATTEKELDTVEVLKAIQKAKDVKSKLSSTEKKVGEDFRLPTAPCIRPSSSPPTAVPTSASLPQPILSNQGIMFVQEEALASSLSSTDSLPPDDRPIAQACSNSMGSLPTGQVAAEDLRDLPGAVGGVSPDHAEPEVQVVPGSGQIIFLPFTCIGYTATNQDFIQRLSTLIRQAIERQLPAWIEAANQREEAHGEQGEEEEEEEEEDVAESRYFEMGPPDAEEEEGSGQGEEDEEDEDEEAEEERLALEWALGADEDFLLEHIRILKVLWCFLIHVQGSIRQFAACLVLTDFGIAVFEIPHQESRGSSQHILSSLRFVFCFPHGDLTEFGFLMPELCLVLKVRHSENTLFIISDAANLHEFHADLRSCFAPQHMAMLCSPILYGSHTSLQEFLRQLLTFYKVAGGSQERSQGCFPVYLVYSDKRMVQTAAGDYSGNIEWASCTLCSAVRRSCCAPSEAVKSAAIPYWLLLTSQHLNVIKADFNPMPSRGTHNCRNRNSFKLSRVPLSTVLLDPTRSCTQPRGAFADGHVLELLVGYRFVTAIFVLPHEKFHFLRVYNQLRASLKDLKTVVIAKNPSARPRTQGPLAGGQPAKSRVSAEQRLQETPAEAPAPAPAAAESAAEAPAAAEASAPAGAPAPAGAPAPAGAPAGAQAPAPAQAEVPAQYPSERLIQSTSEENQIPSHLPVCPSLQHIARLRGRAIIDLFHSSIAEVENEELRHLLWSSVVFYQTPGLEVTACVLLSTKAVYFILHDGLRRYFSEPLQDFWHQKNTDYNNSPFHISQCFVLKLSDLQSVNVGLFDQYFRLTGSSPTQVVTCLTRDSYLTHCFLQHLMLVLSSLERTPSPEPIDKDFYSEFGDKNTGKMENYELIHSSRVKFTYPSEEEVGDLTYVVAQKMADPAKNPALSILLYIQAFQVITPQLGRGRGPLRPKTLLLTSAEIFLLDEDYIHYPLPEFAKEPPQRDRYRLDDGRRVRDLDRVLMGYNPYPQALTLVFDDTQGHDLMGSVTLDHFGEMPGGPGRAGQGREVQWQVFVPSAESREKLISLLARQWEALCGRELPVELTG
# Rattus norvegicus [8] = test: Reduction in heart rate in normotensive anaesthetized Wistar rat at 3 mg/kg, iv; set-up: scale not given: the % may be the effect or the level left
# CHO = test: Selectivity ratio of Ki for I1 imidazoline receptor in rat PC12 cells to Ki for human alpha2 adrenoceptor expressed in CHO cell membranes; format: cell-based
Structure (SMILES),Ki [1] [nM],Activity (Rattus norvegicus [2]) [%],Activity (Rattus norvegicus [3]) [%],Activity (Rattus norvegicus [4]),Activity (Rattus norvegicus [5]),pKi (Nischarin; read-out: Ki),also measured
CC1CC/C(=N/c2ccc(Cl)c3c2CCC3)N1.Cl (stereo not drawn),> 10000,7,6,–,–,–,–
CC1CC/C(=N/c2ccc3c(c2)CCC3)N1.Cl (stereo not drawn),–,4,8,inactive,inactive,–,–
CC1CN/C(=N\c2cccc3c2CCC3)C1.Cl (stereo not drawn),> 10000,–,–,30%,30%,7.72,Activity (Rattus norvegicus [6]): 22%; Activity (Rattus norvegicus [7]): 35%
Cc1ccc(Cl)c(/N=C2\CCC(C)N2)c1.Cl (stereo not drawn),–,7,7,inactive,inactive,–,–
CC1CN/C(=N\c2ccc3c(c2)CCC3)C1.Cl (stereo not drawn),–,4,8,inactive,inactive,–,–
Cc1ccc(F)c(C2=NCCN2)c1,> 10000,–,–,–,–,8.28,–
CC1CN=C(Nc2ccc(Cl)c3c2CCC3)C1 (stereo not drawn),–,–,–,inactive,inactive,9.66,–
Cc1c(Cl)cccc1/N=C1\CCC(C)N1.Cl (stereo not drawn),> 10000,20,28,25%,30%,7.57,–
COc1nc(C)nc(Cl)c1N=C1NCCN1 [MOXONIDINE],–,–,–,–,–,7.11,–
Cc1cccc(C)c1/N=C1/CCC(C)N1.Cl (stereo not drawn),–,4,5,inactive,inactive,–,–
CC1CN/C(=N\c2ccc(Cl)c3c2CCC3)C1.Cl (stereo not drawn),> 10000,6,10,–,–,–,–
CC1CC/C(=N/c2cc3c(cc2Cl)CCC3)N1.Cl (stereo not drawn),–,3,9,inactive,inactive,–,–
Cc1c(Cl)cccc1/N=C1\CC(C)CN1.Cl (stereo not drawn),> 10000,–,–,30%,33%,–,Activity (Rattus norvegicus [8]): 18%; Activity (Rattus norvegicus [7]): 30%
CC1CN/C(=N\c2cccc3c2CCCC3)C1.Cl (stereo not drawn),–,3,5,inactive,inactive,–,–
CC1CC/C(=N/c2cccc3c2CCC3)N1.Cl (stereo not drawn),> 10000,20,37,32%,29%,7.72,–
Cc1cccc(/N=C2\CC(C)CN2)c1C.Cl (stereo not drawn),10000,–,–,25%,31%,7.38,Activity (Rattus norvegicus [6]): 20%; Activity (Rattus norvegicus [7]): 26%
Cc1cccc(/N=C2\CCC(C)N2)c1C.Cl (stereo not drawn),> 10000,18,25,20%,25%,7.15,–
C1COC(NC(C2CC2)C2CC2)=N1 [RILMENIDINE],180,–,–,–,–,7.08,Ratio Ki (CHO): 2.1
Cc1cc(F)ccc1/N=C1\CCC(C)N1.Cl (stereo not drawn),–,8,6,inactive,inactive,–,–
Clc1cccc(Cl)c1N=C1NCCN1 [CLONIDINE],–,–,–,–,–,7.85,–
CC1CNC(Nc2c(Cl)cccc2Cl)=N1 (stereo not drawn),> 1949,–,–,–,–,–,–
NC1=NCC(COc2ccccc2Br)O1 (stereo not drawn),> 10000,–,–,–,–,8.19,–
Cc1ccc(F)c(/N=C2\CCC(C)N2)c1.Cl (stereo not drawn),–,6,9,inactive,inactive,–,–
Cc1c(Cl)cccc1NC1=NCC(C)C1 (stereo not drawn),–,–,–,–,–,8.49,Ratio Ki (CHO): > 3000
CC1CC/C(=N\c2cc(N=[N+]=[N-])c(I)cc2Cl)N1 (stereo not drawn),> 2240,–,–,–,–,8.22,–
CC1CCC(Nc2ccc(I)cc2Cl)=N1 (stereo not drawn),> 2500,–,–,–,–,9.70,–
CC1CC(NC(C2CC2)C2CC2)=NC1C (stereo not drawn),> 10000,–,–,–,–,–,pKi (Nischarin): 6.27
CC1CC/C(=N/c2cccc3c2CCCC3)N1.Cl (stereo not drawn),> 10000,26,37,29%,10%,7.14,–
Cc1ccc(/N=C2/CC(C)CN2)c2c1CCC2.Cl (stereo not drawn),> 10000,22,26,32%,15%,–,–
CC1CCC(Nc2ccc(Cl)c3c2CCC3)=N1 (stereo not drawn),–,–,–,inactive,inactive,8.55,–
